# Results: patent publication US9101576B2, “Treatment of inflammatory diseases” (The University of Chicago, priority 2006, dated 2015)
# Key:
# T cell = settings: cited from earlier work
# [1] = tested on: neonatal DRG-SC co-cultures; assay: Myelination in neonatal DRG-SC co-cultures; type: cell-based
# Text: TNF-α and IFN-γ (labeled as cytokines) acted synergistically to decrease cell viability via NOS induction and ceramide accumulation in immortalized SCs (FIG. 4) (Nagano et al., 2001). Neither cytokine alone induced cell death. These cytokines also exerted a synergistic inhibitory action on myelination in neonatal DRG-SC co-cultures, which is evident after 3 days of treatment.
# [2] = tested on: peripheral blood lymphocyte; assay: Induction of peripheral blood lymphopenia; type: in vivo, mouse
# Protocol: (§1) Female B7-2 deficient NOD mice were used since they are more prone to develop SAP than their male counterparts (Salomon et al., supra). The mice were 7 months of age at the start of the study. Animals were given FTY720 (aqueous solution) at doses of 0.3 mg/kg or 1 mg/kg or vehicle alone by oral gavage once daily for 1 month. The concentrations were chosen based on dose-response studies with regard to the depletion of peripheral lymphocytes, and data from EAE studies in rats (Brinkmann et al., 2002; Fujino et al., 2003).
# The effectiveness of FTY720 was also monitored by the induction of peripheral blood lymphopenia. The peripheral blood lymphocyte count was decreased to 50-60% of vehicle-treated ones by FTY720 (0.3 mg/kg) (n=4) and to 25-30% by FTY720 (1 mg/kg) (n=3).
# B7-2 deficient NOD mice [3] = assay: Histological evaluation of inflammatory cell infiltration in sciatic nerve sections; type: in vivo, mouse; settings: 1.0 mg/kg; quantitative (p<0.02) and semi-quantitative (p<0.003) method; n=7
# Protocol: as §1
# To further evaluate the effect of FTY720 on B7-2 deficient NOD mice, histological evaluation was performed to assess inflammatory cell infiltration. […] For quantitative method, tissue areas were measured by image analysis and the number of inflammatory cells counted at ×20 magnification. The results were averaged and expressed as cells per mm^2 tissue section. For semi-quantitative method, inflammation was graded as: 1, a few scattered mononuclear inflammatory cells often subperineurial; 2, perivenular cuffing with mononuclear inflammatory cells (one or two foci); 3, extensive multifocal perivenular cuffing and widespread endoneurial inflammation.
# lymphocyte = settings: cited from earlier work
# B7-2 deficient NOD mice [4] = assay: Electrophysiological studies of sciatic nerve function in vivo; set-up: species or system mouse; settings: FTY720 1 mg/kg oral gavage once daily for 1 month
# Protocol: as §1
# Electrophysiological studies were performed to assess the effect of FTY720 on sciatic nerve function in vivo in a subset of the study animals. […] FIG. 6 likewise illustrates that FTY720 treatment improves DL and CV (FIG. 6B, showing a summary of the results from experiments performed on 12 nerves from 6 water-treated mice and 14 nerves from 7 FTY720-treated mice) but not the amplitude of sciatic CMAPs (FIG. 6A).
# B7-2 deficient NOD mice [5] = assay: Demyelination and loss of myelinated fibers in epon sections; type: in vivo, mouse; settings: 1.0 mg/kg, p<0.015, n=7
# Protocol: as §1
# Epon sections were prepared from vehicle-treated mice (n=6) and mice treated with 1.0 mg/kg FTY720 (n=7). […] These differences were statistically different with a p value of less than 0.015. The percentage of loss of myelinated fibers in epon sections was assessed by a blinded observer using a grid. Demyelination was graded as follows: 1, isolated demyelinated axons perivascular or scattered; 2, many foci of perivascular demyelination; 3, extensive demyelination, perivascular and confluent.
# B7-2 deficient NOD mice [6] = assay: Clinical scores and grip strength in spontaneous autoimmune polyneuropathy (SAP); type: in vivo, mouse
# Protocol: as §1
# To determine the effect of FTY720 on clinical scores and grip strength of B7-2 deficient NOD mice, both qualitative and quantitative assessment was performed by blinded lab personnel. For qualitative assessment, a nominal scale (with 0 as normal and 5 as death) described by other investigators (Zhu et al., 2001a) was used. For quantitative assessment, hindlimb and forelimb strength was measured with a grip strength meter (Columbus Instruments). […] Similar results were observed when forelimb and hindlimb strength was assessed quantitatively.
# S1P receptors = settings: transfected cells expressing individual S1P receptors; cited from earlier work
# medullary thymocytes = settings: cited from earlier work
compound,measurement,setting,value
"CCCCCCCCCCCCC/C=C/[C@@H](O)[C@@H](N)COP(=O)(O)O [S1P, sphingosine 1-phosphate]",concentration that elicits T cell chemotaxis,T cell; high concentrations are inhibitory,≤ 0.1 µM
IFN-γ: pro-inflammatory Th1 cytokine,effect on myelination,[1]; IFN-γ at 50-300 U/ml alone,No effect on myelination
"CCCCCCCCc1ccc(CCC(N)(CO)CO)cc1 [FTY720, 2-amino-2-[2-(4-octylphenyl)ethyl]-1,3-propanediol]","peripheral blood lymphocyte count, % of vehicle-treated","[2]; 0.3 mg/kg oral once daily, n=4",50-60%
same,"peripheral blood lymphocyte count, % of vehicle-treated","[2]; 1 mg/kg oral once daily, n=3",25-30%
same,T cell chemotactic activity,T cell,lacks T cell chemotactic activity
same,inflammatory cell infiltration vs water-treated mice,B7-2 deficient NOD mice [3],decreased inflammatory cell infiltration
same,concentration that elicits lymphocyte apoptosis,lymphocyte,> 3 µM
same,Distal Latency,"B7-2 deficient NOD mice [4]; sciatic nerve, vehicle 2.59 ± 0.3, p < 0.02",1.58 ± 0.3 ms
same,Conduction Velocity,"B7-2 deficient NOD mice [4]; sciatic nerve, vehicle 14.7 ± 3.0, p < 0.01",22.8 ± 3.2 m/s
same,Amplitude of sciatic CMAPs,B7-2 deficient NOD mice [4]; vehicle 3.75 ± 1.8,3.8 ± 0.7 mV
same,percentage of myelinated fibers lost vs vehicle,B7-2 deficient NOD mice [5],decrease in the percentage of myelinated fibers lost
same,difference in clinical score between 7 months and 8 months,"B7-2 deficient NOD mice [6]; 0.3 mg/kg oral once daily for 1 month, p less than 0.03, n=5",statistically significant
same,forelimb and hindlimb grip strength vs vehicle or 0.3 mg/kg,"B7-2 deficient NOD mice [6]; 1.0 mg/kg oral once daily for 1 month, grip strength meter",increased grip strength
same,"clinical scores, month 7 vs month 8","B7-2 deficient NOD mice [6]; 1.0 mg/kg oral once daily for 1 month, scale 0 normal to 5 death, n=10",did not increase between month 7 and month 8
CCCCCCCCc1ccc(CC[C@](N)(CO)COP(=O)(O)O)cc1 [FTY720-P],agonist activity at S1P receptors,S1P receptors,potent agonist of S1P receptors with the exception of S1P2
TNF-α,effect on myelination,[1]; TNF-α 10 ng/ml alone,No effect on myelination
same,effect on myelination,[1]; TNF-α 100 ng/ml alone,modest inhibitory action
CCCCCCCOc1ccc(CC[C@@](C)(N)CO)cc1 [AAL(R)],time to downregulation of CD69,medullary thymocytes,≤ 2 h
